Source: PMC10520873, “Biochemical investigation of the tryptophan biosynthetic enzyme anthranilate phosphoribosyltransferase in plants” (The Journal of Biological Chemistry, 2023)
Blank lines part the entries; values can stand above or below the molecule they belong to.

Columns and labels:
Assay type in all cases: biochemical
PvPAT1 [1] = target: T1, PvPAT1 (Pistacia vera, UniProt Z9K6G7Q8L5); assay: coupled pyrophosphate release to NADH oxidation, […] nm; Michaelis-Menten fit; conditions: 1 mM PR-PPi, 45 mM imidazole HCl pH 7.4, 30 °C
T1 construct: codon-optimized gene in pET28a, His-tagged, E. coli BL21 (DE3), Ni-NTA
T1 sequence (Z9K6G7Q8L5 1-311): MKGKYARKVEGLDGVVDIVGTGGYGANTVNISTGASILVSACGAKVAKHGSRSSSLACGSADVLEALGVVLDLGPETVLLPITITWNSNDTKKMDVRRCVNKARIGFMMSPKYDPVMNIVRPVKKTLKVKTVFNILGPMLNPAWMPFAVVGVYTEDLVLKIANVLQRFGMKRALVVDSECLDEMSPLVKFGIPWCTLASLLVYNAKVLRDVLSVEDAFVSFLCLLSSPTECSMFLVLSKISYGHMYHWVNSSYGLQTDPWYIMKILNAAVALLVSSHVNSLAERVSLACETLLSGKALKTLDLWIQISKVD

SmPAT1 [2] = target: T2, SmPAT1 (Selaginella moellendorffii, UniProt Z9CFY1Y489); assay: EnzChek pyrophosphate assay (PNP-coupled, […] nm)
T2 construct: gene PAT1; codon-optimized gene in pET28a, His-tagged, E. coli BL21 (DE3), Ni-NTA

PpPAT1 [3] = target: T3, PpPAT1 (Physcomitrium patens, UniProt A9T6I7); assay: EnzChek pyrophosphate assay (PNP-coupled, […] nm)
T3 construct: gene LOC112294424; codon-optimized gene in pET28a, His-tagged, E. coli BL21 (DE3), Ni-NTA

PpPAT1 [4] = target: T3, PpPAT1; assay: coupled pyrophosphate release to NADH oxidation, […] nm; substrate inhibition fit; conditions: 1 mM PR-PPi, 45 mM imidazole HCl pH 7.4, 30 °C
CsPAT1 = target: T4, CsPAT1 (Citrus sinensis, UniProt A0ACB8LSF1); assay: as above; conditions: 1 mM PR-PPi, 45 mM imidazole HCl pH 7.4, 30 °C
T4 construct: gene KPL71_006645; codon-optimized gene in pET28a, His-tagged, E. coli BL21 (DE3), Ni-NTA

JrPAT1 = target: T5, JrPAT1 (Juglans regia, UniProt A0A6P9ES87); assay: as above; conditions: 1 mM PR-PPi, 45 mM imidazole HCl pH 7.4, 30 °C
T5 construct: gene LOC109021987; codon-optimized gene in pET28a, His-tagged, E. coli BL21 (DE3), Ni-NTA

SmPAT1 [5] = target: T2, SmPAT1; assay: as above; conditions: 1 mM PR-PPi, 45 mM imidazole HCl pH 7.4, 30 °C
PvPAT1 [6] = target: T1, PvPAT1; assay: as above; conditions: 1 mM PR-PPi, 45 mM imidazole HCl pH 7.4, 30 °C
AtPAT1 = target: T6, AtPAT1 (Arabidopsis thaliana, UniProt Q02166); assay: as above; conditions: 1 mM PR-PPi, 45 mM imidazole HCl pH 7.4, 30 °C
T6 construct: gene PAT1; codon-optimized gene in pET28a, His-tagged, E. coli BL21 (DE3), Ni-NTA

Km (PvPAT1 [1]; 3-HAA 0-0.5 mM): 50 ± 5.3 µM
SMILES: Nc1c(O)cccc1C(=O)O [3-hydroxyanthranilate]

IC50 (SmPAT1 [2]): 1.98 mM
SMILES: N[C@@H](Cc1ccccc1)C(=O)O [Phe]

SMILES: N[C@@H](Cc1ccc(O)cc1)C(=O)O [Tyr]
IC50 (PpPAT1 [3]): 1.18 mM

SMILES: Nc1ccccc1C(=O)O [anthranilate]
Ki (PpPAT1 [4]): > 5 mM | Km (PvPAT1 [1]; anthranilate 0-0.75 mM): 32.1 ± 4.7 µM | Ki (CsPAT1): 4.1 ± 0.6 mM | Ki (JrPAT1): > 5 mM | Ki (SmPAT1 [5]): 3.6 ± 0.8 mM | Ki (PvPAT1 [6]): 1.8 ± 0.4 mM | Ki (AtPAT1): 4.3 ± 0.4 mM
